In patent publication US4431634A, “Prenatal iron supplements” (American Cyanamid Company, priority 1981, dated 1984):
Read-outs that look alike come from different tables or passages of the source.

Key:
[1] = human, in vivo
[2] = Iron absorption in healthy menstruating female volunteers (serum iron after oral ingestion, randomized crossover; Studies I-IV); conditions: 3 hours after oral ingestion; for effect of co-administered mineral salt on iron absorption: Study II, co-administered with ferrous fumarate

With `O=C([O-])/C=C/C(=O)[O-].[Fe+2]` [Ferrous fumarate, ferrous fumarate, reference compound] the “Calculated mean values for iron absorption, Average” value [1] was 8.1 mg.
For `[O]=[Mg]` [magnesium oxide], the “effect of co-administered mineral salt on iron absorption” value (“effect of co-administered mineral salt” below) ([1]; po) was “additive inhibitory effects on iron absorption” and the “effect of mineral component on bioavailability of the iron supplement” value ([1]; po) was “depressant effects”.
With `O=S(=O)([O-])[O-].[Ca+2]` [Plaster of paris, calcium sulfate] the “effect of co-administered mineral salt” value [2] was “does not seem to be inhibitory”.
In the case of `O=C(O)O` [calcium carbonate], the “effect of co-administered mineral salt” value [2] is reported as “additive inhibitory effects on iron absorption” and the “effect of mineral component on bioavailability of the iron supplement” value ([2]; Study III, mineral components of the formulations) is reported as “depressant effects”.
